According to article PMC9609971, “Benzimidazole Bearing Thiosemicarbazone Derivatives Act as Potent α-Amylase and α-Glucosidase Inhibitors; Synthesis, Bioactivity Screening and Molecular Docking Study” (Molecules, 2022):

How the values were obtained:
[1] = molecular target: crude intestinal α-glucosidase; assay: In vitro α-glucosidase activity assay (p-nitrophenyl-α-D-glucopyranoside substrate); type: biochemical; conditions: triplicate; ± SEM
Procedure: The α-Glucosidase activity was determined by a slight modification to the already-reported method. In a 96-well microplate, 10 μL of test samples (5 mg/mL DMSO solution) were reconstituted in 100 μL of 100 mM-phosphate buffer (pH 6.8) and incubated with 50 μL of crude intestinal α-glucosidase for 5 min before 50 μL substrate (5 mM, p-nitrophenyl-α-D-glucopyranoside prepared in the same buffer) was added. The release of p-nitrophenol was measured at 405 nm spectrophotometrically for 5 min after incubation with the substrate. Individual blanks for test samples were prepared to correct background absorbance where the substrate was replaced with 50 μL of the buffer. The control sample contained 10 μL DMSO in place of the test samples. All reactions were carried out in triplicate.
The percentage of enzyme inhibition was calculated as (1 − B/A) × 100.
Where A represents the absorbance of control without test samples, and B represents absorbance in the presence of test samples.

[2] = molecular target: T1, Porcine pancreatic α-amylase (Sus scrofa, UniProt P00690); assay: In vitro α-amylase activity assay (starch/dinitrosalicylic acid); type: biochemical; conditions: triplicate; ± SEM
T1 construct: α-amylase solution (Porcine pancreatic α-amylase); from tissue; host or cells: porcine pancreas (from the enzyme's name only)
T1 sequence (P00690 16-511): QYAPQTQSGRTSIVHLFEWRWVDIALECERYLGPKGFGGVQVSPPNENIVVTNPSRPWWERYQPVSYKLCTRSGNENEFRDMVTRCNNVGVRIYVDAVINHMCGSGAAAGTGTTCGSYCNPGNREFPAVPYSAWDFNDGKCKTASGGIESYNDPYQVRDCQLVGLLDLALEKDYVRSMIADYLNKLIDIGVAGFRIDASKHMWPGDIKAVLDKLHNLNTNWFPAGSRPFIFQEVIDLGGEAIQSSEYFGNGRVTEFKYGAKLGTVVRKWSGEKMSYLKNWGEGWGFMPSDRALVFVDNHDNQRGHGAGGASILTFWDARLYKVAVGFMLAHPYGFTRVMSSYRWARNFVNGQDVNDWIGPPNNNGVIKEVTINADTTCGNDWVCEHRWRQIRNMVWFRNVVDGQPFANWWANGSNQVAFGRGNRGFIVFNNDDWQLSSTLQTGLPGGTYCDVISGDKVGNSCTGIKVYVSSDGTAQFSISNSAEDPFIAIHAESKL
Procedure: α-Amylase inhibition was determined by an assay modified by Kwon, Apostolidis & Shetty. A total of 40 μL of sample and 40 μL of 0.02 M sodium phosphate buffer (pH 6.9 with 0.006 M sodium chloride) containing α-amylase solution (Porcine pancreatic α-amylase) (0.5 mg/mL) were incubated at 25 °C for 10 min. After pre-incubation, 40 μL of a 1% starch solution in 0.02 M sodium phosphate buffer (pH 6.9 with 0.006 M sodium chloride) was added to each tube at 5 s intervals. The reaction mixtures were then incubated at 25 °C for 10 min. The reaction was stopped with 100 μL of dinitrosalicylic acid color reagent. The test tubes were then incubated in a boiling water bath for 5 min and cooled to room temperature. The reaction mixture was then diluted after adding 900 μL of distilled water, and the absorbance was measured at 540 nm. […] All reactions were carried out in triplicate.

Compound	IC50 [1] [µM]	IC50 [2] [µM]
O=[N+]([O-])c1cccc(/C=N/NC(=S)NN=C(CSc2nc3ccccc3[nH]2)c2ccc(Br)cc2)c1 [derivative 18, N′-(2-((1H-Benzo[d]imidazol-2-yl)thio)-1-(4-bromophenyl)ethylidene)-2-((E)-3-nitrobenzylidene)hydrazine-1-carbothiohydrazide]	14.1 ± 0.01	13.2 ± 0.2
O=[N+]([O-])c1ccccc1/C=N/NC(=S)NN=C(CSc1nc2ccccc2[nH]1)c1ccc(Br)cc1 [derivative 15, N′-(2-((1H-Benzo[d]imidazol-2-yl)thio)-1-(4-bromophenyl)ethylidene)-2-((E)-2-nitrobenzylidene)hydrazine-1-carbothiohydrazide]	18.1 ± 0.2	17.1 ± 0.01
O=[N+]([O-])c1ccc(/C=N/NC(=S)NN=C(CSc2nc3ccccc3[nH]2)c2ccc(Br)cc2)cc1 [derivative 17, N′-(2-((1H-Benzo[d]imidazol-2-yl)thio)-1-(4-bromophenyl)ethylidene)-2-((E)-4-nitrobenzylidene)hydrazine-1-carbothiohydrazide]	16.1 ± 0.01	15.1 ± 0.2
O=[N+]([O-])c1ccc(/C=N/NC(=S)NN=C(CSc2nc3ccccc3[nH]2)c2ccc(Cl)c(Cl)c2)cc1 [derivative 13, N′-(2-((1H-Benzo[d]imidazol-2-yl)thio)-1-(3,4-dichlorophenyl)ethylidene)-2-((E)-4-nitrobenzylidene)hydrazine-1-carbothiohydrazide]	3.1 ± 0.2	2.1 ± 0.2
O=[N+]([O-])c1ccccc1/C=N/NC(=S)NN=C(CSc1nc2ccccc2[nH]1)c1ccc(-c2ccccc2)cc1 [derivative 7, N′-(2-((1H-Benzo[d]imidazol-2-yl)thio)-1-([1,1′-biphenyl]-4-yl)ethylidene)-2-((E)-2-nitrobenzylidene)hydrazine-1-carbothiohydrazide]	14.2 ± 0.1	16.1 ± 0.01
O=[N+]([O-])c1cccc(/C=N/NC(=S)NN=C(CSc2nc3ccccc3[nH]2)c2ccc(-c3ccccc3)cc2)c1 [derivative 9, N′-(2-((1H-Benzo[d]imidazol-2-yl)thio)-1-([1,1′-biphenyl]-4-yl)ethylidene)-2-((E)-3-nitrobenzylidene)hydrazine-1-carbothiohydrazide]	14.2 ± 0.2	13.1 ± 0.1
N′-((Z)-2-((1H-Benzo[d]imidazol-2-yl)thio)-1-(3-fluorophenyl)ethylidene)-2-((E)-2-methyl-4-nitrobenzylidene)hydrazine-1-carbothiohydrazide [derivative 20]	1.6 ± 0.2	1.4 ± 0.01
O=[N+]([O-])c1ccccc1/C=N/NC(=S)NN=C(CSc1nc2ccccc2[nH]1)c1ccc(Cl)c(Cl)c1 [derivative 11, N′-(2-((1H-Benzo[d]imidazol-2-yl)thio)-1-(3,4-dichlorophenyl)ethylidene)-2-((E)-2-nitrobenzylidene)hydrazine-1-carbothiohydrazide]	4.2 ± 0.1	3.1 ± 0.1
O=[N+]([O-])c1cccc(/C=N/NC(=S)NN=C(CSc2nc3ccccc3[nH]2)c2ccc(Cl)c(Cl)c2)c1 [derivative 14, N′-(2-((1H-Benzo[d]imidazol-2-yl)thio)-1-(3,4-dichlorophenyl)ethylidene)-2-((E)-3-nitrobenzylidene)hydrazine-1-carbothiohydrazide]	7.1 ± 0.01	6.1 ± 0.2
O=[N+]([O-])c1cccc(/C=N/NC(=S)N/N=C(\CSc2nc3ccccc3[nH]2)c2ccccc2)c1 [derivative 21, N′-((Z)-2-((1H-Benzo[d]imidazol-2-yl)thio)-1-phenylethylidene)-2-((E)-3-nitrobenzylidene)hydrazine-1-carbothiohydrazide]	22.1 ± 0.2	21.1 ± 0.01
Oc1ccc(/C=N/NC(=S)NN=C(CSc2nc3ccccc3[nH]2)c2ccc(Cl)c(Cl)c2)cc1 [derivative 12, N′-(2-((1H-Benzo[d]imidazol-2-yl)thio)-1-(3,4-dichlorophenyl)ethylidene)-2-((E)-4-hydroxybenzylidene)hydrazine-1-carbothiohydrazide]	2.2 ± 0.2	1.1 ± 0.2
Fc1cccc(/C=N/NC(=S)N/N=C(\CSc2nc3ccccc3[nH]2)c2cccc(F)c2)c1 [derivative 19]	1.3 ± 0.2	1.2 ± 0.2
O=[N+]([O-])c1ccc(/C=N/NC(=S)NN=C(CSc2nc3ccccc3[nH]2)c2ccc(-c3ccccc3)cc2)cc1 [derivative 8, N′-(2-((1H-Benzo[d]imidazol-2-yl)thio)-1-([1,1′-biphenyl]-4-yl)ethylidene)-2-((E)-4-nitrobenzylidene)hydrazine-1-carbothiohydrazide]	17.2 ± 0.1	15.2 ± 0.2
Oc1ccc(/C=N/NC(=S)NN=C(CSc2nc3ccccc3[nH]2)c2ccc(-c3ccccc3)cc2)cc1 [derivative 10, N′-(2-((1H-Benzo[d]imidazol-2-yl)thio)-1-([1,1′-biphenyl]-4-yl)ethylidene)-2-((E)-4-hydroxybenzylidene)hydrazine-1-carbothiohydrazide]	11.2 ± 0.1	10.2 ± 0.02
Oc1ccc(/C=N/NC(=S)NN=C(CSc2nc3ccccc3[nH]2)c2ccc(Br)cc2)cc1 [derivative 16, N′-(2-((1H-Benzo[d]imidazol-2-yl)thio)-1-(4-bromophenyl)ethylidene)-2-((E)-4-hydroxybenzylidene)hydrazine-1-carbothiohydrazide]	21.1 ± 0.01	20.1 ± 0.2
